Converted amounts (≈) assume the structure as drawn. Numbered stars: 1 amine (or outer) side, 2 acyl side, 3 side chain; on linkers, the order of the positions; unused ones are H or OH. Square brackets hold non-standard residues; d marks the D form. Peptide text beside a SMILES is read from it. * marks the point of attachment. X4 = N[C@@H](Cc1ccccc1)CN(CC(=O)[*:2])[*:1]; X7 = O=S(=O)(c1cc(C(F)(F)F)cc(C(F)(F)F)c1)*
Experiments:
Escherichia coli = test: Antimicrobial activity against Escherichia coli ATCC 25922 assessed as inhibition of visible bacterial growth incubated for 18 hrs by broth-dilution method; assay type: functional
Bacillus subtilis = test: Antimicrobial activity against Bacillus subtilis ATCC 23857 assessed as inhibition of visible bacterial growth incubated for 18 hrs by broth-dilution method; assay type: functional
Erythrocyte = test: Hemolytic activity against mouse Red blood cell incubated for 1 hr; assay type: toxicity, cell-based
Salmonella typhimurium = test: Antimicrobial activity against Salmonella typhimurium ATCC 14028 assessed as inhibition of visible bacterial growth incubated for 18 hrs by broth-dilution method; assay type: functional, Salmonella enterica subsp. enterica serovar Typhimurium; conditions: Salmonella enterica
[1] = system: Staphylococcus epidermidis; test: Antimicrobial activity against Staphylococcus epidermidis ATCC 12228 assessed as inhibition of visible bacterial growth incubated for 18 hrs by broth-dilution method; assay type: functional
Pseudomonas aeruginosa [2] = test: Antimicrobial activity against Pseudomonas aeruginosa ATCC 27853 assessed as inhibition of visible bacterial growth incubated for 18 hrs by broth-dilution method; assay type: functional
Staphylococcus aureus [3] = test: Antimicrobial activity against Staphylococcus aureus ATCC 25923 assessed as inhibition of visible bacterial growth incubated for 18 hrs by broth-dilution method; assay type: functional
Staphylococcus aureus [4] = test: Antimicrobial activity against methicillin-resistant Staphylococcus aureus ATCC 33591 assessed as inhibition of visible bacterial growth incubated for 18 hrs by broth-dilution method; assay type: functional
Acinetobacter baumannii = test: Antimicrobial activity against Acinetobacter baumannii ATCC 19606 assessed as inhibition of visible bacterial growth incubated for 18 hrs by broth-dilution method; assay type: functional
[5] = Stability in human serum assessed as half life measured for 5 hrs by RP-HPLC analysis; assay type: ADME, cell-free
Staphylococcus aureus [6] = test: Antimicrobial activity against methicillin-resistant Staphylococcus aureus 5 assessed as inhibition of visible bacterial growth incubated for 18 hrs by broth-dilution method; assay type: functional
Staphylococcus aureus [7] = test: Antimicrobial activity against methicillin-resistant Staphylococcus aureus 8 assessed as inhibition of visible bacterial growth incubated for 18 hrs by broth-dilution method; assay type: functional
Staphylococcus aureus [8] = test: Antimicrobial activity against methicillin-resistant Staphylococcus aureus 7 assessed as inhibition of visible bacterial growth incubated for 18 hrs by broth-dilution method; assay type: functional
Staphylococcus aureus [9] = test: Antimicrobial activity against methicillin-resistant Staphylococcus aureus 10 assessed as inhibition of visible bacterial growth incubated for 18 hrs by broth-dilution method; assay type: functional
Staphylococcus aureus [10] = test: Antimicrobial activity against methicillin-resistant Staphylococcus aureus 3 assessed as inhibition of visible bacterial growth incubated for 18 hrs by broth-dilution method; assay type: functional
Staphylococcus aureus [11] = test: Antimicrobial activity against methicillin-resistant Staphylococcus aureus 1 assessed as inhibition of visible bacterial growth incubated for 18 hrs by broth-dilution method; assay type: functional
Staphylococcus aureus [12] = test: Antimicrobial activity against methicillin-resistant Staphylococcus aureus 9 assessed as inhibition of visible bacterial growth incubated for 18 hrs by broth-dilution method; assay type: functional
Staphylococcus aureus [13] = test: Antimicrobial activity against methicillin-resistant Staphylococcus aureus 4 assessed as inhibition of visible bacterial growth incubated for 18 hrs by broth-dilution method; assay type: functional
Staphylococcus aureus [14] = test: Antimicrobial activity against methicillin-resistant Staphylococcus aureus 6 assessed as inhibition of visible bacterial growth incubated for 18 hrs by broth-dilution method; assay type: functional
Staphylococcus aureus [15] = test: Antimicrobial activity against methicillin-resistant Staphylococcus aureus 2 assessed as inhibition of visible bacterial growth incubated for 18 hrs by broth-dilution method; assay type: functional
Pseudomonas aeruginosa [16] = test: Antimicrobial activity against multidrug-resistant Pseudomonas aeruginosa 085 assessed as inhibition of visible bacterial growth incubated for 18 hrs by broth-dilution method; assay type: functional
Pseudomonas aeruginosa [17] = test: Antimicrobial activity against multidrug-resistant Pseudomonas aeruginosa 156 assessed as inhibition of visible bacterial growth incubated for 18 hrs by broth-dilution method; assay type: functional
Staphylococcus aureus [18] = test: Antibacterial activity against antibiotics-resistant Staphylococcus aureus ATCC 33591 assessed as reduction in microbial growth; assay type: functional
Pseudomonas aeruginosa [19] = test: Antibacterial activity against antibiotics-resistant Pseudomonas aeruginosa […] assessed as reduction in microbial growth; assay type: functional
Pseudomonas aeruginosa [20] = test: Antimicrobial activity against multidrug-resistant Pseudomonas aeruginosa 125 assessed as inhibition of visible bacterial growth incubated for 18 hrs by broth-dilution method; assay type: functional
Pseudomonas aeruginosa [21] = test: Antimicrobial activity against multidrug-resistant Pseudomonas aeruginosa 050 assessed as inhibition of visible bacterial growth incubated for 18 hrs by broth-dilution method; assay type: functional
Pseudomonas aeruginosa [22] = test: Antimicrobial activity against multidrug-resistant Pseudomonas aeruginosa 157 assessed as inhibition of visible bacterial growth incubated for 18 hrs by broth-dilution method; assay type: functional
Pseudomonas aeruginosa [23] = test: Antimicrobial activity against multidrug-resistant Pseudomonas aeruginosa 124 assessed as inhibition of visible bacterial growth incubated for 18 hrs by broth-dilution method; assay type: functional
Pseudomonas aeruginosa [24] = test: Antimicrobial activity against multidrug-resistant Pseudomonas aeruginosa 119 assessed as inhibition of visible bacterial growth incubated for 18 hrs by broth-dilution method; assay type: functional
Pseudomonas aeruginosa [25] = test: Antimicrobial activity against multidrug-resistant Pseudomonas aeruginosa 061 assessed as inhibition of visible bacterial growth incubated for 18 hrs by broth-dilution method; assay type: functional
Pseudomonas aeruginosa [26] = test: Antimicrobial activity against multidrug-resistant Pseudomonas aeruginosa 516 assessed as inhibition of visible bacterial growth incubated for 18 hrs by broth-dilution method; assay type: functional
Pseudomonas aeruginosa [27] = test: Antimicrobial activity against multidrug-resistant Pseudomonas aeruginosa 073 assessed as inhibition of visible bacterial growth incubated for 18 hrs by broth-dilution method; assay type: functional

Compound | MIC (Escherichia coli) [µg/mL] | MIC (Bacillus subtilis) [µg/mL] | MHC (Erythrocyte) [µg/mL] | MIC (Salmonella typhimurium) [µg/mL] | MIC [1] [µg/mL] | MIC (Pseudomonas aeruginosa [2]) [µg/mL] | MIC (Staphylococcus aureus [3]) [µg/mL] | MIC (Staphylococcus aureus [4]) [µg/mL] | MIC (Acinetobacter baumannii) [µg/mL] | MIC (Staphylococcus aureus [6]) [µg/mL] | MIC (Staphylococcus aureus [7]) [µg/mL] | MIC (Staphylococcus aureus [8]) [µg/mL] | MIC (Staphylococcus aureus [9]) [µg/mL] | MIC (Staphylococcus aureus [10]) [µg/mL] | MIC (Staphylococcus aureus [11]) [µg/mL] | MIC (Staphylococcus aureus [12]) [µg/mL] | MIC (Staphylococcus aureus [13]) [µg/mL] | MIC (Staphylococcus aureus [14]) [µg/mL] | MIC (Staphylococcus aureus [15]) [µg/mL] | MIC (Pseudomonas aeruginosa [16]) [µg/mL] | other results
CC(C)C[C@H](NC(=O)[C@H](CC(C)C)NC(=O)[C@H](CCCCN)NC(=O)[C@H](CCCCN)NC(=O)[C@H](CC(C)C)NC(=O)[C@H](C)NC(=O)[C@H](CCCCN)NC(=O)CN(C[C@@H](N)Cc1ccccc1)S(=O)(=O)c1cc(C(F)(F)F)cc(C(F)(F)F)c1)C(N)=O (X7-[X4]KALKKLL-NH2) | 16 (≈ 12.5 µM) | 4 (≈ 3.13 µM) | 128 | 8 (≈ 6.26 µM) | 8 (≈ 6.26 µM) | 16 (≈ 12.5 µM) | 8 (≈ 6.26 µM) | 8 (≈ 6.26 µM) | 16 (≈ 12.5 µM) |  |  |  |  |  |  |  |  |  |  |  | 
CC(C)C[C@H](NC(=O)[C@H](CC(C)C)NC(=O)[C@H](CCCCN)NC(=O)[C@H](CCCCN)NC(=O)[C@H](CC(C)C)NC(=O)[C@H](CC(C)C)NC(=O)[C@H](CCCCN)NC(=O)CN(C[C@@H](N)Cc1ccccc1)S(=O)(=O)c1cc(C(F)(F)F)cc(C(F)(F)F)c1)C(N)=O (X7-[X4]KLLKKLL-NH2) | 8 (≈ 6.06 µM) | 4 (≈ 3.03 µM) | 32 | 8 (≈ 6.06 µM) | 8 (≈ 6.06 µM) | 8 (≈ 6.06 µM) | 4 (≈ 3.03 µM) | 8 (≈ 6.06 µM) | 16 (≈ 12.1 µM) |  |  |  |  |  |  |  |  |  |  |  | half-life [5]: 5.6 h
CC1(C)S[C@@H]2[C@H](NC(=O)[C@H](N)c3ccc(O)cc3)C(=O)N2[C@H]1C(=O)O [AMOXICILLIN] | 4 (≈ 10.9 µM) | 256 (≈ 701 µM) |  | 256 (≈ 701 µM) | 256 (≈ 701 µM) | 256 (≈ 701 µM) | 1 (≈ 2.74 µM) | 128 (≈ 350 µM) | 128 (≈ 350 µM) | 32 (≈ 87.6 µM) | 4 (≈ 10.9 µM) | 16 (≈ 43.8 µM) | 32 (≈ 87.6 µM) | 4 (≈ 10.9 µM) | 4 (≈ 10.9 µM) | 8 (≈ 21.9 µM) | 8 (≈ 21.9 µM) | 32 (≈ 87.6 µM) | 4 (≈ 10.9 µM) |  | 
C[C@H]1[C@H](NC(=O)/C(=N\OC(C)(C)C(=O)O)c2csc(N)n2)C(=O)N1S(=O)(=O)O [AZTREONAM] |  |  |  |  |  |  |  |  |  |  |  |  |  |  |  |  |  |  |  | 8 (≈ 18.4 µM) | MIC (Pseudomonas aeruginosa [17]): 256 µg/mL (≈ 588 µM); MIC (Staphylococcus aureus [18]): 32 µg/mL; MIC (Pseudomonas aeruginosa [19]): 32 µg/mL; MIC (Pseudomonas aeruginosa [20]): 8 µg/mL (≈ 18.4 µM); MIC (Pseudomonas aeruginosa [21]): 8 µg/mL (≈ 18.4 µM); MIC (Pseudomonas aeruginosa [22]): 8 µg/mL (≈ 18.4 µM); MIC (Pseudomonas aeruginosa [23]): 4 µg/mL (≈ 9.19 µM); MIC (Pseudomonas aeruginosa [24]): 8 µg/mL (≈ 18.4 µM); MIC (Pseudomonas aeruginosa [25]): 256 µg/mL (≈ 588 µM)
C[C@@H](O)[C@H]1C(=O)N2C(C(=O)O)=C(SCCNC=N)C[C@H]12 [IMIPENEM ANHYDROUS] | 1 (≈ 3.34 µM) | 1 (≈ 3.34 µM) |  | 1 (≈ 3.34 µM) | 1 (≈ 3.34 µM) | 2 (≈ 6.68 µM) | 1 (≈ 3.34 µM) | 32 (≈ 107 µM) | 1 (≈ 3.34 µM) | 1 (≈ 3.34 µM) | 1 (≈ 3.34 µM) | 1 (≈ 3.34 µM) | 1 (≈ 3.34 µM) | 1 (≈ 3.34 µM) | 1 (≈ 3.34 µM) | 1 (≈ 3.34 µM) | 1 (≈ 3.34 µM) | 1 (≈ 3.34 µM) | 1 (≈ 3.34 µM) | 8 (≈ 26.7 µM) | MIC (Pseudomonas aeruginosa [17]): 4 µg/mL (≈ 13.4 µM); MIC (Staphylococcus aureus [18]): 32 µg/mL; MIC (Pseudomonas aeruginosa [19]): 32 µg/mL; MIC (Pseudomonas aeruginosa [20]): 8 µg/mL (≈ 26.7 µM); MIC (Pseudomonas aeruginosa [26]): 4 µg/mL (≈ 13.4 µM); MIC (Pseudomonas aeruginosa [21]): 8 µg/mL (≈ 26.7 µM); MIC (Pseudomonas aeruginosa [22]): 2 µg/mL (≈ 6.68 µM); MIC (Pseudomonas aeruginosa [23]): 4 µg/mL (≈ 13.4 µM); MIC (Pseudomonas aeruginosa [27]): 4 µg/mL (≈ 13.4 µM); MIC (Pseudomonas aeruginosa [24]): 2 µg/mL (≈ 6.68 µM); MIC (Pseudomonas aeruginosa [25]): 2 µg/mL (≈ 6.68 µM)
H-FLKLLKKLL-NH2 | 32 | 4 | 256 | 16 | 16 | 8 | 16 | 16 | 16 | 8 | 8 | 4 | 4 | 4 | 4 | 4 | 8 | 8 | 8 | 8 | MIC (Pseudomonas aeruginosa [17]): 8 µg/mL; MIC (Pseudomonas aeruginosa [20]): 8 µg/mL; MIC (Pseudomonas aeruginosa [26]): 8 µg/mL; MIC (Pseudomonas aeruginosa [21]): 8 µg/mL; MIC (Pseudomonas aeruginosa [22]): 8 µg/mL; MIC (Pseudomonas aeruginosa [23]): 8 µg/mL; MIC (Pseudomonas aeruginosa [27]): 8 µg/mL; half-life [5]: 1.09 h; MIC (Pseudomonas aeruginosa [24]): 4 µg/mL; MIC (Pseudomonas aeruginosa [25]): 8 µg/mL
